Measured values reported in PMC7324617, “Selection and identification of a novel bone-targeting peptide for biomedical imaging of bone” (Scientific Reports, 2020).
Entries after “also recorded” stand apart in the source; their conditions may differ. Where no end group is shown, it is not given here.

Assays:
[1] = Blood analysis for in vivo clearance; design: species or system mice; conditions: blood samples 10 μL at 1, 3, 6 and 12 h after intravenous injection of Cy5.5-HA pep3; fluorescence (IVIS)
Text: We used X-ray function of in vivo imaging machine, IVIS Lumina XRMS and performed X-ray imaging of the mice with Cy5.5-HA pep3. With x-ray images, we could observe the high fluorescence intensity at spine (Figure S5a). In additions, we compared its biodistribution in vivo to our Cy5.5-HA pep3 and E7 positive peptide after intravenous injection. […] In addition, we performed blood analysis to determine clearance of our peptide in vivo (Figure S6).
All animal studies were approved by the Institutional Review Board of the Catholic University of Korea (approval No. CUMC-2019-0003-01). BALB/c nude mice (4 weeks old, OrientBio, Seongnam city, Korea) and wild type C3H/HeN mice were used for in vivo imaging. Cy5.5-scramble peptide or Cy5.5-HAp peptide (5 mg/kg of peptide in 100 µL physiological saline, n = 3) were administered to the mice by a tail vein injection. […] All images were analyzed with Living Image 4.5 software (PerkinElmer Inc., Massachusetts, USA). […] The fluorescence intensity of […] in samples was measured by IVIS Lumina XRMS.
Figure S6. […] (a) Time-dependent fluorescence images of blood sample obtained from mice tail at 1, 2, 3, 6 and 12h after intravenous injection of Cy5.5-HA pep3. (b) Average fluorescence intensity graph of the blood samples in (a).

[2] = system: Saos-2 cells; assay: Cytotoxicity assay (WST-1) in Saos-2 cells; assay type: cell-based; conditions: 1 nM to 100 μM, 24 h, 48 h and 72 h, WST-1, triplicates
Procedure: The biocompatibility of HA-pep3 is important for assessing the feasibility of its in vivo application. Therefore, we performed HA-pep3 cytotoxicity assessment in osteoblastic Saos-2 osteogenic cells for 24 h, 48 h and 72 h (Fig. 6a and Figure S3). The cell viability was measured using various concentrations of HA-pep3 ranging from 1 nM to 100 μM. […] Next, we analyzed HA-pep3 in vivo application feasibility. We used Cy5.5 dye with near-infrared wavelength for in vivo imaging, to minimize tissue adsorption. After Cy5.5 dye labeling, scrambled peptide and HA-pep3 were injected into the tail vein of nude mice. […] The fluorescence intensity in bone was about 3.32 folds higher for Cy5.5-HA-pep3 than for a scrambled sequence (Fig. 6d).
Saos-2 osteosarcoma osteogenic primary cell line was purchased from the Korean cell line bank. Cells were cultured in […] medium with L-glutamine (300 mg/L), 25 mM HEPES, and 25 mM NaHCO3 supplemented with 10% heat-inactivated fetal bovine serum (FBS), 100 U/mL penicillin, and 100 μg/mL streptomycin. The cell lines were cultured at 37 °C and up to 5% CO2 in humidified atmosphere. All reagents and cell culture media were purchased from the WELGENE Company, South Korea. HA-pep3 cytotoxicity was examined using WST-1 assay. […] Finally, the absorbance was measured at 450 nm using a microplate spectrophotometer (Tecan Infinite 200). […]

clearance from blood [1]: disappeared in blood after 12 h
Sequence: KNFQSRSH [HA-pep3]
cytotoxicity (cell viability) [2]: no cytotoxicity; also recorded: did not show any cytotoxicity up to 100 μM
